Data on 2 molecules can be found in patent US5843916A, “Cyclic amp analogues, individually and in pairs, to inhibit neoplastic cell growth” (priority 1994, dated 1998).

“Also recorded” adds a separate entry of the source. Where two headings read alike, the source gives them in different places.

One test deals with MCF-7. Kind of test: Growth of MCF-7 cells (Tables 3, 11). The conditions noted are these: Homo sapiens, MCF7, 72 h. The class given is cell-based. On the procedure:
All breast cancer cell lines were grown in IMEM supplemented with 10% fetal bovine serum, HEPES 20 mM, penicillin-streptomycin, and extra glutamine. Colon carcinoma cell lines were grown in EMEM supplemented with 10% FBS, EMEM, NEAA, HEPES 20 mM, extra glutamine, and penicillin-streptomycin. The cells were grown at 37° C. in humidified incubators in an atmosphere of 5% CO2.
For cell growth experiments, 2-3×10^5 cells/60 mm dish were seeded, and 24 hours later (Day 0), the medium was removed, and fresh medium and the additives were added then and every 48 hours thereafter. The compounds of the present invention were added using 100X concentrated stock solutions. At desired times, cell counts in duplicate were performed on a Coulter counter after harvesting the cells with gentle trypsinization.

For the next test, the system named is HL-60. In words: Growth inhibition of leukemic cells (Table 12). The class given is cell-based. The settings on record: Homo sapiens.
Test [1] has as its system p21 ras protein, MCF-7 cells. Kind of test: Western blotting of p21 ras protein (Table 11, FIG. 7). The class given is cell-based, human. The conditions noted are these: for p21 (Relative Level): 3 days, 8-Cl-cAMP 10 μM, 8-Cl-adenosine 5 μM, DBcAMP 500 μM, control = 1.0 O.D.; for p21 level: three days. The procedure: Western blotting of p21 protein was performed as described below. […] V is cell lysate from Ha-MuSV-transformed NIH3T3 clone 13-3B-4. M, marker proteins of known molecular weight.
Each lane contained 100 micrograms of protein for SDS-PAGE.
Cellular proteins present in cell extracts were separated by 12% SDS-PAGE and transferred to nitrocellulose sheets in transfer buffer (25 mM Tris, 192 mM glycine, 20% methanol, pH 7.4). Nitrocellulose sheets were washed and first incubated with 3% bovine serum albumin in NTE-NP40 (50 mM Tris-HCl, pH 7.5, 150 mM NaCl, 2 mM EDTA, 0.1% Nonidet P-40) for three hours at 37° C. and then sequentially incubated with medium containing p21 monoclonal antiserum Y13-259 directed against the Ha-MuSV-encoded p21 for sixteen hours at 4° C., rabbit anti-rat IgG for 2.5 hours in an ice water bath, and 5×10^5 cpm/ml ^125 I-protein A for one hour in an ice water bath. The nitrocellulose sheets were air dried and exposed to Kodak XAR film for 12-36 hours at -20° C. Comparison of the resulting autoradiograms with others in which normal rat serum was substituted for p21 monoclonal antibody permitted identification of p21. To provide a reference p21, cell lysates were prepared from NIH 3T3 clone 13-3B-4 that had been transfected with HaMuSV DNA.
The levels of p21 protein are expressed relative to the p21 level in the untreated control cells which is set equal to 1.0 O.D.
In general terms: In western blotting, separated proteins are transferred to a membrane and probed.

In test [2] the test system is c-myc protein, Molt-4 leukemic cells. Kind of test: Western blotting of c-myc protein (FIG. 9B). Type of test: cell-based, human. The settings on record: three days; 8-Cl-cAMP 5 μM, DBcAMP 1 mM, 8-Cl-adenosine 5 μM. The procedure:
The cells were grown in suspension culture in RPMI 1640 medium supplemented with 10% fetal bovine serum, penicillin (50 U/ml), streptomycin (500 μg/mL), 10 mM HEPES buffer, and extra glutamine. […] Surface antigen analysis of HL-60 cells was performed by flow cytometry using a panel of monoclonal antibodies reactive with either myeloid cells or monocytic cells. Terminal deoxynucleotidyl transferase (TdT) was assayed by an immunoperoxidase method using a TdT fluorescence kit. Western blotting of c-myc protein was performed using c-myc antibody 15206D11 (Scripps Clinic and Research Foundation, LaJolla, Calif.).
M, marker proteins of known molecular weight. […] The resulting supernatants were used as cell lysates. […] ND=nondetectable.

For the next test, the system named is DMBA-1 mammary carcinoma. In words: Growth of transplantable mammary carcinoma, pellet (Table 5). Type of test: in vivo, rat. The settings on record: for Change in mean tumor volume (cm^3) / Change in mean tumor volume (%): pellet with 10 mg analogue, day 7; for Change in mean tumor volume (%): none = 100. On the procedure:
(§1) Based on the findings with the […] leukemia model, the efficacy of the 8-Cl-cAMP-Na+infusions were evaluated in advanced-stage human tumor xenograft models. Tumor fragments of approximately 14 mg were implanted subcutaneously in athymic CD-1 female mice and seven day intraperitoneal infusions of the cyclic nucleotide were initiated three weeks later when mean tumor weights had reached 300-400 mg. Tumor measurements were recorded on the initial day of treatment (staging day) and one day after treatment was completed (staging day +7), and were used to calculate changes in tumor weights.
DMBA-1, a variant of primary hormonedependent DMBA tumor,
hormoneindependent and transplantable.
(§2) 8Cl-cAMP and DBcAMP were given as a 20mg pellet consisting of 10 mg of […]

Another test deals with NMU-2 mammary carcinoma. In words: Growth of metastatic mammary carcinoma, pellet (Table 5). Type of test: in vivo, rat. The settings on record: for Change in mean tumor volume (cm^3) / Change in mean tumor volume (%): pellet with 10 mg analogue, day 7; for Change in mean tumor volume (%): none = 100. The procedure:
as §1
NMU2, a variant of primary hormoneresponsive NMU tumor,
hormoneindependent, transplantable, and metastatic.
as §2

Test [3] concerns DMBA-induced mammary carcinomas. In words: Growth of DMBA-induced mammary carcinomas, pellet (Table 4). The class given is in vivo, rat. The conditions noted are these: for tumor growth: 10 mg pellet for 8-Cl-cAMP, implanted twice every two weeks. The procedure: Treated tumors regress almost 100% within 30 days.
^b 8Cl-cAMP (20 mg pellet per rat, consisting of 10 mg 8Cl-cAMP and […]
mg cholesterol), was implanted on day 0 and day 14.

Another test deals with K-562. Kind of test: Growth inhibition of leukemic cells (Table 12). Type of test: cell-based. The conditions noted are these: Homo sapiens, K562.
Test [4] concerns RI and RII cAMP receptor proteins, breast (MDA-MB-231) and colon (LS-174T) cancer cells. Kind of test: cAMP receptor protein levels, breast and colon cancer cells (FIG. 6). The conditions noted are these: for RI and RII receptor levels: three days, FIG. 6. The class given is cell-based, human. The procedure: Photoactivated incorporation of 8-N3 [^32 P] was performed as described below.
M is marker proteins of known molecular weight.
The incubations were carried out at 23° C. for 60 minutes in 96-well immunoplates. […] The gels were fixed, dried, and exposed to X-ray films overnight.

The next test deals with Molt-4. In words: Growth inhibition of leukemic cells (Table 12). The class given is cell-based, human. The conditions noted are these: for IC50: Homo sapiens, MOLT-4.
Test [5] deals with breast (MCF-7) and colon (LS-174T) cancer cell lines. In words: Growth inhibition of breast and colon cancer cells (Table 1). The class given is cell-based, human. The settings on record: for inhibition at 50 µM: Homo sapiens. The gist of the method: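 MCF-7 and LS-174T cells seeded day −1, treated on day 0 and day 2; duplicate Coulter counts on days 3 and 4 after gentle trypsinization. Percent growth inhibition versus untreated controls from dose-response curves, averaged over ≥3 experiments.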

The test system of test [6] is RI cAMP receptor protein, Molt-4 leukemic cells. In words: Photoaffinity labelling of RI cAMP receptor protein (FIG. 9A). The class given is cell-based, human. The conditions noted are these: three days; 8-Cl-cAMP 5 μM, DBcAMP 1 mM, 8-Cl-adenosine 5 μM.
Where [7] appears, read: Table 11, 8-Cl-cAMP 10 μM, 8-Cl-adenosine 5 μM, DBcAMP 500 μM, control 100.
The mark [8] stands for this setting: 72 h, 50 μM, day 3, average (range), read-out: % Growth Inhibition, Day 3.
[9] abbreviates: 96 h, 50 μM, day 4, average (range), read-out: % Growth Inhibition, Day 4.

As for `CCCC(=O)Nc1ncnc2c1ncn2[C@@H]1O[C@@H]2COP(=O)(O)O[C@H]2[C@H]1OC(=O)CCC` [DBcAMP, N^6, O^2' -dibutyryl-cAMP, reference compound], in the test on MCF-7, the inhibition at 500 µM was found to be 20%. The molecule further returned an activity at 500 µM in the test on MCF-7 (setting [7]) of 80%. Moreover, the IC50 with HL-60 was 500 µM; in the test with K-562 it was 1000 µM; with Molt-4 (read-out: Inhibition of Growth IC50, Molt-4 (symbol)), more than 1000 µM. For the same molecule, the “p21 (Relative Level)” value in test [1] is reported as 0.8 ± 0.1. Further, the “p21 level” value in test [1] is given as “slight reduction in p21 level”. The “c-myc protein level” value in [2] is listed as “did not affect the c-myc protein level”. Further, the “tumor response” value in the test with DMBA-1 mammary carcinoma (Table 5) and in the test on NMU-2 mammary carcinoma (Table 5) was “completely resistant” each time. The results for the “Change in mean tumor volume (cm^3)” value in the test with DMBA-1 mammary carcinoma and in the test with NMU-2 mammary carcinoma were 2.60 cm^3 and 2.15 cm^3, respectively. In addition, the “Change in mean tumor volume (%)” value with DMBA-1 mammary carcinoma turned out to be 9%; with NMU-2 mammary carcinoma, 100%. In [3], the “tumor growth” value is reported as “only arrests this tumor growth without producing regression”. In addition, the “RI and RII receptor levels” value in test [4] is “the RI and RII receptor levels remained unchanged; also recorded: did not appreciably affect the RI or RII receptor levels”. Also, the “50% growth inhibition” value in the test on Molt-4 (Molt-4) is “the 50% growth inhibition could not be obtained”. Moreover, the “growth inhibition” value in [5] (50 micromolar) was “no growth inhibition”. Moreover, the inhibition at 50 µM in test [5] (setting [8]) and in test [5] (setting [9]) was 0% in each case. In test [6], the “RI receptor protein level” value was “without appreciable change”.

In the test on MCF-7, `Nc1ncnc2c1nc(Cl)n2[C@@H]1O[C@@H]2COP(=O)(O)O[C@H]2[C@H]1O` [8-Cl-cAMP, 8-chloro-adenosine 3': 5'-monophosphate] gave an inhibition at 10 µM of 57%. Moreover, the activity at 10 µM in the test on MCF-7 (10 μM, 3 days, control 100 (Table 3)) came to 40%; in the test with MCF-7 (setting [7]) it was 43%. For the same molecule, the IC50 in the test with HL-60 came out at 10 µM; in the test with K-562, 20 µM; in the test with Molt-4 (read-out: Inhibition of Growth IC50, Molt-4), 5 µM. Besides, the “p21 (Relative Level)” value in test [1] is 0.1 ± 0.01. The “p21 level” value in test [1] is on record as “markedly decreased level of p21”. The “c-myc protein level” value in test [2] is “marked reduction of c-myc protein level”. In addition, the “Change in mean tumor volume (cm^3)” value with DMBA-1 mammary carcinoma worked out at 1.60 cm^3; with NMU-2 mammary carcinoma it was 1.10 cm^3. Further, the “Change in mean tumor volume (%)” value with DMBA-1 mammary carcinoma stood at 61%; with NMU-2 mammary carcinoma it was 51%. For the same molecule, the “inhibition of tumor growth” value is reported as 40-50% in the test on DMBA-1 mammary carcinoma (pellet, seven days) and 40-50% with NMU-2 mammary carcinoma (pellet, seven days). The “tumor growth” value in test [3] is “completely stopped tumor growth”. In addition, the tumor regression in test [3] (10 mg pellet, within 30 days) is on record as approximately 100%. Further, the “Mean % of change in tumor volume” value in test [3] (pellet day 0 and day 14, day 30, mean ± S.E.) is given as -96 ± 20%. Moreover, the “decrease in the RI level” value in test [4] (densitometric tracings) is on record as 70-80%. Further, the “increase in the ratio of RII to RI” value in [4] (densitometric tracings) is “two- to three-fold increase”. Moreover, in [4], the “RI and RII receptor levels” value is listed as “the cAMP receptor protein with a molecular weight of 52,000 increased appreciably with concomitant decrease of the 48,000 RI receptor protein”. In addition, the inhibition at 50 µM in test [5] (setting [8]) was 67%; in [5] (setting [9]), 75%; in [5] (50 micromolar, read-out: growth inhibition), 40 to 75%. Besides, the “RI receptor protein level” value in test [6] is given as “markedly decreased”.

A word on the inhibition: it is the drop in the measured response relative to a control, in per cent. As usually defined, the IC50 is the concentration needed to halve the response being measured.
